Measurements reported in ChEMBL document CHEMBL1201862, “PubChem BioAssay data set” (2004).
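Exposure lasted 48 hours, with cells grown in 96-well plates and compounds tested at five concentrations. GI50 = concentration required for 50% inhibition of growth.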 Active and inactive are the calls of the source. No stated cut-off is given here; in the data, active = GI50 up to about 1.1 µM and inactive = higher.

Tests used:
Assay in all cases: DTP human tumour cell line panel, 48 h
UACC-62 = system: UACC-62
MDA-N = system: MDA-N
MCF7 = system: MCF7
Malme-3M = system: Malme-3M
HCT-15 = system: HCT-15
UO-31 = system: UO-31
COLO 205 = system: COLO 205
786-0 = system: 786-0
SNB-19 = system: SNB-19
NCI-H522 = system: NCI-H522
RPMI-8226 = system: RPMI-8226
MOLT-4 = system: MOLT-4
MDA-MB-231 = system: MDA-MB-231
NCI-H460 = system: NCI-H460
SF-295 = system: SF-295
HCC 2998 = system: HCC 2998
OVCAR-3 = system: OVCAR-3
HOP-62 = system: HOP-62
A498 = system: A498
SR = system: SR
KM12 = system: KM12
T47D = system: T47D
OVCAR-5 = system: OVCAR-5
SF-268 = system: SF-268
BT-549 = system: BT-549
CAKI-1 = system: CAKI-1
SK-MEL-28 = system: SK-MEL-28
SF-539 = system: SF-539
RXF 393 = system: RXF 393
SW-620 = system: SW-620
OVCAR-8 = system: OVCAR-8
SN12C = system: SN12C
NCI-H23 = system: NCI-H23
OVCAR-4 = system: OVCAR-4
DU-145 = system: DU-145
SK-OV-3 = system: SK-OV-3
K562 = system: K562
LOX IMVI = system: LOX IMVI
UACC-257 = system: UACC-257
HCT-116 = system: HCT-116
SK-MEL-5 = system: SK-MEL-5
ACHN = system: ACHN
TK-10 = system: TK-10
HOP-92 = system: HOP-92
U-251 = system: U-251
NCI-H226 = system: NCI-H226
MDA-MB-435 = system: MDA-MB-435
EKVX = system: EKVX
A549 = system: A549
SK-MEL-2 = system: SK-MEL-2
M14 = system: M14
Hs-578T = system: Hs-578T
NCI/ADR-RES = system: NCI/ADR-RES
IGROV-1 = system: IGROV-1
CCRF-CEM = system: CCRF-CEM
HT-29 = system: HT-29
PC-3 = system: PC-3
HL-60 = system: HL-60

NS(=O)(=O)c1nnc(NC(=O)C23CC4CC(CC(C4)C2)C3)s1
GI50 (UACC-62): > 100 µM (inactive)
GI50 (MDA-N): > 100 µM (inactive)
GI50 (MCF7): > 100 µM (inactive)
GI50 (Malme-3M): > 100 µM (inactive)
GI50 (HCT-15): > 100 µM
GI50 (UO-31): > 100 µM (inactive)
GI50 (COLO 205): > 100 µM (inactive)
GI50 (786-0): > 100 µM (inactive)
GI50 (SNB-19): > 100 µM (inactive)
GI50 (NCI-H522): 68.2 µM (inactive)
GI50 (RPMI-8226): 88.9 µM (inactive)
GI50 (MOLT-4): > 100 µM (inactive)
GI50 (MDA-MB-231): > 100 µM (inactive)
GI50 (NCI-H460): 60.1 µM (inactive)
GI50 (SF-295): > 100 µM (inactive)
GI50 (HCC 2998): > 100 µM (inactive)
GI50 (OVCAR-3): > 100 µM (inactive)
GI50 (HOP-62): > 100 µM (inactive)
GI50 (A498): > 100 µM (inactive)
GI50 (SR): > 100 µM (inactive)
GI50 (KM12): > 100 µM (inactive)
GI50 (T47D): 90.4 µM (inactive)
GI50 (OVCAR-5): > 100 µM (inactive)
GI50 (SF-268): 55.7 µM (inactive)
GI50 (BT-549): 82.2 µM (inactive)
GI50 (CAKI-1): > 100 µM (inactive)
GI50 (SK-MEL-28): > 100 µM (inactive)
GI50 (SF-539): > 100 µM (inactive)
GI50 (RXF 393): 61.7 µM (inactive)
GI50 (SW-620): > 100 µM (inactive)
GI50 (OVCAR-8): > 100 µM (inactive)
GI50 (SN12C): > 100 µM (inactive)
GI50 (NCI-H23): > 100 µM (inactive)
GI50 (OVCAR-4): 0.101 µM (active)
GI50 (DU-145): > 100 µM (inactive)
GI50 (SK-OV-3): > 100 µM (inactive)
GI50 (K562): > 100 µM (inactive)
GI50 (LOX IMVI): > 100 µM (inactive)
GI50 (UACC-257): > 100 µM (inactive)
GI50 (HCT-116): > 100 µM (inactive)
GI50 (SK-MEL-5): 96.2 µM (inactive)
GI50 (ACHN): > 100 µM (inactive)
GI50 (TK-10): > 100 µM (inactive)
GI50 (HOP-92): > 100 µM (inactive)
GI50 (U-251): > 100 µM (inactive)
GI50 (NCI-H226): > 100 µM (inactive)
GI50 (MDA-MB-435): > 100 µM (inactive)
GI50 (EKVX): > 100 µM (inactive)
GI50 (A549): > 100 µM (inactive)
GI50 (SK-MEL-2): > 100 µM (inactive)
GI50 (M14): > 100 µM (inactive)
GI50 (Hs-578T): > 100 µM (inactive)
GI50 (NCI/ADR-RES): > 100 µM (inactive)

O=C(O)c1cc(Sc2ccc([N+](=O)[O-])c(C(=O)O)c2)ccc1[N+](=O)[O-]
GI50 (UACC-62): > 100 µM (inactive)
GI50 (MDA-N): > 100 µM (inactive)
GI50 (MCF7): > 100 µM (inactive)
GI50 (Malme-3M): 0.413 µM (active)
GI50 (HCT-15): > 100 µM
GI50 (UO-31): > 100 µM (inactive)
GI50 (COLO 205): > 100 µM (inactive)
GI50 (786-0): > 100 µM (inactive)
GI50 (SNB-19): > 100 µM (inactive)
GI50 (RPMI-8226): > 100 µM (inactive)
GI50 (MOLT-4): > 100 µM (inactive)
GI50 (MDA-MB-231): > 100 µM (inactive)
GI50 (NCI-H460): > 100 µM (inactive)
GI50 (SF-295): > 100 µM (inactive)
GI50 (OVCAR-3): > 100 µM (inactive)
GI50 (HOP-62): > 100 µM (inactive)
GI50 (IGROV-1): > 100 µM (inactive)
GI50 (A498): > 100 µM (inactive)
GI50 (KM12): > 100 µM (inactive)
GI50 (T47D): > 100 µM (inactive)
GI50 (OVCAR-5): > 100 µM (inactive)
GI50 (SF-268): > 100 µM (inactive)
GI50 (BT-549): > 100 µM (inactive)
GI50 (SK-MEL-28): > 100 µM (inactive)
GI50 (CCRF-CEM): > 100 µM (inactive)
GI50 (SF-539): > 100 µM (inactive)
GI50 (RXF 393): > 100 µM (inactive)
GI50 (SW-620): > 100 µM (inactive)
GI50 (OVCAR-8): > 100 µM (inactive)
GI50 (HT-29): > 100 µM (inactive)
GI50 (SN12C): > 100 µM (inactive)
GI50 (OVCAR-4): > 100 µM (inactive)
GI50 (DU-145): > 100 µM (inactive)
GI50 (SK-OV-3): > 100 µM (inactive)
GI50 (K562): > 100 µM (inactive)
GI50 (LOX IMVI): > 100 µM (inactive)
GI50 (UACC-257): > 100 µM (inactive)
GI50 (PC-3): > 100 µM (inactive)
GI50 (HL-60): > 100 µM (inactive)
GI50 (HCT-116): > 100 µM (inactive)
GI50 (SK-MEL-5): > 100 µM (inactive)
GI50 (ACHN): > 100 µM (inactive)
GI50 (TK-10): > 100 µM (inactive)
GI50 (HOP-92): > 100 µM (inactive)
GI50 (U-251): > 100 µM (inactive)
GI50 (NCI-H226): > 100 µM (inactive)
GI50 (MDA-MB-435): > 100 µM (inactive)
GI50 (EKVX): > 100 µM (inactive)
GI50 (A549): > 100 µM (inactive)
GI50 (SK-MEL-2): > 100 µM (inactive)
GI50 (M14): > 100 µM (inactive)
GI50 (Hs-578T): > 100 µM (inactive)
GI50 (NCI/ADR-RES): > 100 µM (inactive)
